Experimental data published in publication PMC4444576, “Prospective performance evaluation of selected common virtual screening tools. Case study: Cyclooxygenase (COX) 1 and 2” (European Journal of Medicinal Chemistry, 2015).
Where two headings read alike, the source gives them in different places.

How the values were obtained:
human recombinant COX-2 = biological target: T1, human recombinant COX-2 (Homo sapiens, UniProt P35354); test: COX-2 inhibition assay (PGE2 EIA); assay type: biochemical; settings: for inhibition at 20 µM: read-out: % inhibition at 20µM, COX-2
T1 construct: purchased Sigma–Aldrich
T1 sequence (P35354 18-604): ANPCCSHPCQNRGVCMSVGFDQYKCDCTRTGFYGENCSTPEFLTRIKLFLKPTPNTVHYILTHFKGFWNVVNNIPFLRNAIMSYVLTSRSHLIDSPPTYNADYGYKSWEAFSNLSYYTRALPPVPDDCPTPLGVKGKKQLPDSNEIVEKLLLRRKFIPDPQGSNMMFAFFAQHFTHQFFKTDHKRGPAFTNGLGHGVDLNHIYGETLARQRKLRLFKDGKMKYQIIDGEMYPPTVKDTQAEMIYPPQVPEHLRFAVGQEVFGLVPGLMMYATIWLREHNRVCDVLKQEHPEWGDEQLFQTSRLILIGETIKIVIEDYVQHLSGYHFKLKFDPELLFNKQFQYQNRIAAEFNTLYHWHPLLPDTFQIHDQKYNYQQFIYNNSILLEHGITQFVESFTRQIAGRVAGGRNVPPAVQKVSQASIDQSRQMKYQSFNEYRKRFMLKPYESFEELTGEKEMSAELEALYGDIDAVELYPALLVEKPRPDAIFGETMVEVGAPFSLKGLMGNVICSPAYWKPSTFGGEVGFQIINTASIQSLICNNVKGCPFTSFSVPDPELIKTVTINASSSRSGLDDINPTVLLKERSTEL

[1] = biological target: T2, ram seminal vesicle COX-1 (Ovis aries, UniProt P05979); test: COX-1 inhibition assay (PGE2 EIA); assay type: biochemical; settings: for inhibition at 20 µM: read-out: % inhibition at 20µM, COX-1
T2 construct: ram seminal vesicle COX-1 (1 U) (Sigma–Aldrich); purchased Sigma–Aldrich; host or cells: ram seminal vesicle (tissue of origin)
T2 sequence (P05979 25-600): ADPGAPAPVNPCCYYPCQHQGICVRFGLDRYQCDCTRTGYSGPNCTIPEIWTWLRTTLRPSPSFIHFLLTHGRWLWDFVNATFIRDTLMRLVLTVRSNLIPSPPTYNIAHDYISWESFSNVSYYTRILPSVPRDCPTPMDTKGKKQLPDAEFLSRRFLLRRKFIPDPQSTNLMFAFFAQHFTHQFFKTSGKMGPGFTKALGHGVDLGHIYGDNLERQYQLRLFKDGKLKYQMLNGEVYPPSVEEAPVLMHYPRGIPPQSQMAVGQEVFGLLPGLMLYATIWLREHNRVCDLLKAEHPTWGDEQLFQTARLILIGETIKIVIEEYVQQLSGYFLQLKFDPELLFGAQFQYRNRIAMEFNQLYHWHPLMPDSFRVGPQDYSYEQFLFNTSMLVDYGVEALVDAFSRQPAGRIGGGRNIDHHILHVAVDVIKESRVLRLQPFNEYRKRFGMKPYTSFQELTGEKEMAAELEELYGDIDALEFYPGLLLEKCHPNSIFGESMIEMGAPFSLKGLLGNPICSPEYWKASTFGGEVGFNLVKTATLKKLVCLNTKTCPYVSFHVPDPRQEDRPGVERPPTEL

COX [2] = test: Biological testing for COX-inhibiting activity, overall outcome on both isoforms; assay type: biochemical; settings: for COX isoform selectivity: COX-1 versus COX-2
COX [3] = settings: data from the literature, cited from earlier work
[4] = biological testing of this study

| SMILES | inhibition at 20 µM (human recombinant COX-2; 20 µM, triplicates) [%] | inhibition at 20 µM ([1]; triplicates) [%] | Activity (COX [2]; [4]) | further results |
| --- | --- | --- | --- | --- |
| O=C(O)c1ccc(Cl)c(Cl)c1 [3,4-dichlorobenzoic acid] | 0.1 ± 3.3 | -1.8 ± 14.3 | Inactive |  |
| C#C[C@]1(O)CC[C@H]2[C@@H]3CCc4cc(OC)ccc4[C@H]3CC[C@@]21C [17α-ethinylestradiol-3-methylether] |  |  |  | % inhibition at 20µM, COX-2 (human recombinant COX-2): -10.9 ± 31.4%; % inhibition at 20µM, COX-1 ([1]; triplicates): 2.6 ± 11.9%; Activity (COX [2]): Inactive |
| C#C[C@]1(O)CC[C@H]2[C@@H]3CCc4cc(O)ccc4[C@H]3CC[C@@]21C [17α-ethinylestradiol] | -5.2 ± 11.6 | 0.4 ± 16.7 | Inactive |  |
| CC(C)Cc1ccc([C@H](C)C(=O)O)cc1 [(S)-ibuprofen] |  |  |  | Activity (COX [3]): Active [61] |
| O=S(=O)([O-])c1ccc(N=Nc2ccc(O)cc2O)cc1.[Na+] [Acid orange 6] |  |  | Inactive | % inhibition at 20µM, COX-2 (human recombinant COX-2; 20 µM, triplicates): -0.1 ± 5.6%; % inhibition at 20µM, COX-1 ([1]; triplicates): -1.2 ± 6.0% |
| C=CCOc1ccc(CC(=O)O)cc1Cl [Alclofenac] |  |  |  | Activity (COX [3]): Active [40] |
| NS(=O)(=O)c1cc(-c2nnn[nH]2)c(NCc2cccs2)cc1Cl [Azosemide] | -1.1 ± 4.7 | -9.9 ± 25.6 | Inactive |  |
| O=S(=O)([O-])CCNc1ccc(S(=O)(=O)c2ccc(NCCS(=O)(=O)[O-])cc2)cc1.[Na+].[Na+] [Baludon] |  |  | Inactive | % inhibition at 20µM, COX-2 (human recombinant COX-2; 20 µM, triplicates): -3.7 ± 15.4%; % inhibition at 20µM, COX-1 ([1]; triplicates): -8.4 ± 8.7% |
| NS(=O)(=O)c1cc2c(cc1Cl)N=C(CSCc1ccccc1)NS2(=O)=O [Benzothiazide] | -7.4 ± 25.8 | 16.6 ± 18.6 | Inactive |  |
| COc1ccc2cc3[n+](cc2c1OC)CCc1cc2c(cc1-3)OCO2 [Berberin] |  |  |  | Activity (COX [3]): Inactive [50]; Activity (COX [3]; listed as Berberine): not by direct inhibition of the enzyme |
| CC(C)NCC(O)COc1ccc(COCCOC(C)C)cc1 (centres unmarked) [Bisoprolol] | 10.2 ± 7 | -1.4 ± 7.7 | Inactive |  |
| CC(C(=O)O)c1ccc2c(c1)[nH]c1ccc(Cl)cc12 (centres unmarked) [Carprofen] |  |  |  | Activity (COX [3]): Active [51] |
| O=C(N[C@H](CO)[C@H](O)c1ccc([N+](=O)[O-])cc1)C(Cl)Cl [Chloramphenicol] | 10.7 ± 10.7 | -1.7 ± 9.5 | Inactive |  |
| CC(C)(Oc1ccc(Cl)cc1)C(=O)O [Clofibric acid] | 7.1 ± 18.7 | 36.4 ± 17.4 | Inactive |  |
| C/C=C(/C(=C/C)c1ccc(OC(C)=O)cc1)c1ccc(OC(C)=O)cc1 [Dienestrol diacetate (5), Dienestrol diacetate] |  |  | Active | IC50 (human recombinant COX-2; average of at least two independent experiments, triplicates, read-out: IC50 COX-2): 2 ± 0.9 µM; IC50 ([1]; average of at least two independent experiments, triplicates, read-out: IC50 COX-1): 4.2 ± 1.5 µM; COX isoform selectivity (COX [2]): unselective COX-inhibitor; COX isoform selectivity (COX [2]; listed as dienestrol diactetate (5)): inhibited both isoforms |
| COCCCN1CCN(c2ccccc2OC)CC1 [Dimetholizine] | -8.7 ± 8.2 | -15.1 ± 23.4 | Inactive |  |
| O=C(O)CCC(=O)c1ccc(-c2ccccc2)cc1 [Fenbufen] |  |  |  | Activity (COX [3]): Active [52] |
| Cc1c(Nc2ncccc2C(=O)O)cccc1C(F)(F)F [Flunixin meglumine] |  |  |  | Activity (COX [3]): Active [53] |

| SMILES | inhibition at 20 µM (human recombinant COX-2; 20 µM, triplicates) [%] | inhibition at 20 µM ([1]; triplicates) [%] | Activity (COX [2]; [4]) | further results |
| --- | --- | --- | --- | --- |
| CC/C(=C(/CC)c1ccc(OP(=O)(O)O)cc1)c1ccc(OP(=O)(O)O)cc1 [Fosfestrol] | 26 ± 5 | 29.1 ± 9.7 | Inactive |  |
| NS(=O)(=O)c1cc(C(=O)O)c(NCc2ccco2)cc1Cl [Furosemid] |  |  |  | % inhibition at 20µM, COX-2 (human recombinant COX-2): 8.7 ± 8.9%; % inhibition at 20µM, COX-1 ([1]; triplicates): -1.07 ± 17.3%; Activity (COX [2]): Inactive |
| O=C(OCC(O)CO)c1ccccc1Nc1ccnc2cc(Cl)ccc12 (centres unmarked) [Glafenine] | 3.5 ± 6 | 3.7 ± 34.6 | Inactive |  |
| COc1ccc2c(c1)c(CC(=O)O)c(C)n2C(=O)c1ccc(Cl)cc1 [Indometacin] |  |  |  | Activity (COX [3]): Active [54] |
| N[C@@H](Cc1cc(I)c(Oc2cc(I)c(O)c(I)c2)c(I)c1)C(=O)O [Levothyroxin] | 14.9 ± 18.3 | 12.9 ± 10.3 | Inactive |  |
| C#C[C@]1(O)CC[C@H]2[C@@H]3CCC4=C(CCC(=O)C4)[C@H]3CC[C@@]21C [Norethynodrel] | -11.6 ± 32.2 | 21 ± 10.9 | Inactive |  |
| CC(=O)Oc1ccc(C2(c3ccc(OC(C)=O)cc3)C(=O)Nc3ccccc32)cc1 [Oxyphenisatin acetate] | -1.8 ± 11.1 | -3.2 ± 27.9 | Inactive |  |
| CNC(=O)Oc1ccc(-c2ccccc2)cc1 [Paxamate (4), Paxamate] |  |  | Active | IC50 (human recombinant COX-2): > 20 µM; IC50 [1]: 17.1 ± 3.1 µM; COX isoform selectivity (COX [2]): COX-1 selective |
| O=S(=O)(O)Oc1ccc(C(c2ccc(OS(=O)(=O)O)cc2)c2ccccn2)cc1 [Picosulfate sodium] | -11 ± 29.4 | 8.3 ± 21 | Inactive |  |
| COC(=O)c1ccccc1C(=O)c1ccc(OCCN2CCCCC2)cc1 [Pitofenone] | 14.1 ± 18.4 | -4.7 ± 16.2 | Inactive |  |
| CNC(=C[N+](=O)[O-])NCCSCc1ccc(CN(C)C)o1 [Ranitidine] | 12.7 ± 5.1 | -11 ± 9.6 | Inactive |  |
| CC(C)(Oc1ccc(Cl)cc1)C(=O)OCCCOC(=O)c1cccnc1 [Ronifibrate] |  |  | Inactive | % inhibition at 20µM, COX-2 (human recombinant COX-2; 20 µM, triplicates): 33.0 ± 5.7%; % inhibition at 20µM, COX-1 ([1]; triplicates): 28.2 ± 11.6% |
| O=S(O)CNc1ccc(S(=O)(=O)c2ccc(NCS(=O)O)cc2)cc1 [Sulfoxone] | -0.7 ± 6.4 | -2.1 ± 16.4 | Inactive |  |
| NS(=O)(=O)c1ccc(N2CCCCS2(=O)=O)cc1 [Sulthiame] | -0.9 ± 13.6 | 3.7 ± 9.3 | Inactive |  |
| Cc1ncc(C[n+]2csc(CCO)c2C)c(N)n1 [Thiamine monochloride] | -3.2 ± 6.9 | 13.8 ± 15.6 | Inactive |  |
| O=C(O)COc1ccc(C(=O)c2cccs2)c(Cl)c1Cl [Ticrynafen] | 18.4 ± 6.1 | -6.2 ± 6.1 | Inactive |  |
| [Cl-].c1ccc(-c2nn(-c3ccccc3)[n+](-c3ccccc3)n2)cc1 [Triphenyltetrazol] |  |  | Inactive | % inhibition at 20µM, COX-2 (human recombinant COX-2; 20 µM, triplicates): 2.9 ± 7.3%; % inhibition at 20µM, COX-1 ([1]; triplicates): 13.6 ± 14.4% |
| CC(=O)Nc1ccc(-c2ccccc2)cc1 [p-phenylacetanilide] |  |  | Inactive | % inhibition at 20µM, COX-2 (human recombinant COX-2; 20 µM, triplicates): -1.6 ± 8.3%; % inhibition at 20µM, COX-1 ([1]; triplicates): 5.8 ± 18.3% |
